Results published in patent US12122778B2, “Activating pyruvate kinase R” (Novo Nordisk Health Care AG, priority 2018, dated 2024).

Biological target: PKR(wt) (Homo sapiens, UniProt P30613)
Test: Luminescence Biochemical Assay (Kinase Glo Plus), wild type PKR
Conditions: without FBP; for activation at 1.54 µM: 1.54 μM compound, read-out: AC50 LUM KGP woFBP % Fold@1.54 μM mean; for AC50: read-out: AC50 LUM KGP woFBP AC50 μM gmean; for Emax: read-out: AC50 LUM KGP woFBP MAX % FOLD mean
Procedure: In some embodiments, a PKR Activating Compound can have: (1) an AC50 value of less than 0.1 μM (e.g., compounds with AC50 values of “+++” in Table 13), 0.1-1.0 μM (e.g., compounds with AC50 values of “++” in Table 13), or 1.01-40 μM (e.g., compounds with AC50 values of “+” in Table 13); (2) a MAX % Fold of 75%-250%, 250-500%, or 75%-500%; and/or (3) a % Fold@1.54 μM of 75%-250%, 250-500%, or 75%-500%. In some embodiments, a PKR Activating Compound has (1) an AC50 value of less than 1.0 μM; (2) a MAX % Fold of 75%-500%; and/or (3) a % Fold@1.54 μM of 75%-500%.
The phosphorylation of Adenosine-5′-diphosphate (ADP) by various mutants of PKR was determined by the Kinase Glo Plus Assay (Promega) in the presence or absence of FBP [D-Fructose-1,6-diphosphate; BOC Sciences, CAS: 81028-91-3] as follows. Unless otherwise indicated, all reagents were purchased from Sigma-Aldrich. All reagents were prepared in buffer containing 50 mM Tris-HCl, 100 mM KCl, 5 mM MgCl2, and 0.01% Triton X100, 0.03% BSA, and 1 mM DTT. Enzyme and PEP [Phospho(enol) pyruvic acid] were added at 2× to all wells of an assay-ready plate containing serial dilutions of test compounds or DMSO vehicle. Final enzyme concentrations for PKR(wt), PKR(R510Q), and PKR(G332S) were 0.8 nM, 0.8 nM, and 10 nM respectively. Final PEP concentration was 100 μM. The Enzyme/PEP mixture was incubated with compounds for 30 minutes at RT before the assay was initiated with the addition of 2×ADP [Adenosine-5′-diphosphate] and KinaseGloPlus. Final concentration of ADP was 100 μM. […] For assays containing FBP, that reagent is added at 30 μM upon reaction initiation. Reactions were allowed to progress for 45 minutes at RT until luminescence was recorded by the BMG PHERAstar FS Multilabel Reader. All compounds were tested in triplicate at concentrations ranging from 42.5 μM to 2.2 nM in 0.83% DMSO.
Luminescence values were converted to % Fold increase by normalizing to the average of the DMSO control and multiplying by 100. Max, min, slope and AC50 were determined by the standard four parameter fit algorithm of ActivityBase XE Runner. Compounds were evaluated with three parameters—AC50, MAX % Fold, and % Fold@1.54 μM (FIG. 1). The AC50 value for a compound is the concentration (μM) corresponding to the midway between the maximum and minimum values of the four parameter logistic curve fit (i.e., at which the % fold increase along the four parameter logistic curve fit is halfway between MAX % Fold and MIN % Fold (% Fold Midpoint)), MAX % Fold is the highest fold increase observed at any concentration of compound, and % Fold@1.54 μM is the fold increase at a compound concentration of 1.54 μM. The parameter % Fold@1.54 μM was selected to capture elements of both the AC50 and MAX % Fold and to provide a ranking based on both potency and effect. The compound concentration of 1.54 μM was chosen as one that can optimally differentiate the set of compounds based on the range of activities observed.
As set forth in Table 13 below, AC50 values (columns A, D, G) are defined as follows: ≤0.1 μM (+++); >0.1 μM and ≤1.0 μM (++); >1.0 μM and ≤40 μM (+); >40 μM (0). Max % FOLD values (columns B, E, H) are defined as follows: ≤75% (+); >75% and ≤250% (++); >250% and ≤500% (+++). % Fold@1.54 μM values (columns C, F, J) are defined as follows: ≤75% (+); >75% and ≤250% (++); >250% and ≤50000 (+++).

Chain of PKR(wt) (P30613 whole entry): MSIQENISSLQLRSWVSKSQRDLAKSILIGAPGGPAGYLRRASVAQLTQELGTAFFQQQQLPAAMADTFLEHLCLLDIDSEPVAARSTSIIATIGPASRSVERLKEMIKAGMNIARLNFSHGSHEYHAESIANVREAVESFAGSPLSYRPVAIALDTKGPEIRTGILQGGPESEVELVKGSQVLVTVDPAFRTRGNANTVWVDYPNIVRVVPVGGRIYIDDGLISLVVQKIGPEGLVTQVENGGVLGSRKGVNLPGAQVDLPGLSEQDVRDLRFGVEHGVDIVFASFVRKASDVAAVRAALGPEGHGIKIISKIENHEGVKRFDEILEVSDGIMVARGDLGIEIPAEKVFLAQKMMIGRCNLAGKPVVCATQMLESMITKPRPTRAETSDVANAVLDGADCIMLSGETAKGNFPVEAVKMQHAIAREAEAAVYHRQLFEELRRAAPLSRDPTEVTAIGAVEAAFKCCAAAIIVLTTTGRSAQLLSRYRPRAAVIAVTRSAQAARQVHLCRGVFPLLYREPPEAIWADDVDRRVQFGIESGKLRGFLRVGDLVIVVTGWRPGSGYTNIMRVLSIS

Row | Structure (SMILES) | activation at 1.54 µM | AC50 | Emax
1 | CS(=O)(=O)NCC(=O)N1CC2=C(C1)CN(S(=O)(=O)c1ccc3occc3c1)C2 [Example 1-1, N-(2-(5-(benzofuran-5-ylsulfonyl)-3,4,5,6-tetrahydropyrrolo[3,4-c]pyrrol-2(1H)-yl)-2-oxoethyl)methanesulfonamide] | 75 to 250% | 0.1 to 1 µM | 75 to 250%
2 | O=C(CCC(F)F)N1CC2=C(C1)CN(S(=O)(=O)c1ccc3occc3c1)C2 [Example 1-2, 1-(5-(Benzofuran-5-ylsulfonyl)-3,4,5,6-tetrahydropyrrolo[3,4-c]pyrrol-2(1H)-yl)-4,4-difluorobutan-1-one] | 75 to 250% | 0.1 to 1 µM | 250 to 500%
3 | CC(C)(O)C(=O)N1CC2=C(C1)CN(S(=O)(=O)c1ccc3occc3c1)C2 [Example 1-3, 1-(5-(Benzofuran-5-ylsulfonyl)-3,4,5,6-tetrahydropyrrolo[3,4-c]pyrrol-2(1H)-yl)-2-hydroxy-2-methylpropan-1-one] | 75 to 250% | 0.1 to 1 µM | 250 to 500%
4 | O=C(N1CC2=C(C1)CN(S(=O)(=O)c1ccc3occc3c1)C2)C1(O)CC1 [Example 1-4, (5-(Benzofuran-5-ylsulfonyl)-3,4,5,6-tetrahydropyrrolo[3,4-c]pyrrol-2(1H)-yl)(1-hydroxycyclopropyl)methanone] | 75 to 250% | 0.1 to 1 µM | 250 to 500%
5 | CN(C)CCC(=O)N1CC2=C(C1)CN(S(=O)(=O)c1ccc3occc3c1)C2 [Example 1-5, 1-(5-(Benzofuran-5-ylsulfonyl)-3,4,5,6-tetrahydropyrrolo[3,4-c]pyrrol-2(1H)-yl)-3-(dimethylamino)propan-1-one] | 75 to 250% | 1 to 40 µM | 75 to 250%
6 | NCC1(C(=O)N2CC3=C(C2)CN(S(=O)(=O)c2ccc4occc4c2)C3)CC1 [Example 2-1, (1-(Aminomethyl)cyclopropyl)(5-(benzofuran-5-ylsulfonyl)-3,4,5,6-tetrahydropyrrolo[3,4-c]pyrrol-2(1H)-yl)methanone] | 75 to 250% | 1 to 40 µM | 75 to 250%
7 | O=C(NCC1CCCO1)N1CC2=C(C1)CN(S(=O)(=O)c1ccc3occc3c1)C2 (stereo not drawn) [Example 3-1, 5-(Benzofuran-5-ylsulfonyl)-N-((tetrahydrofuran-2-yl)methyl)-3,4,5,6-tetrahydropyrrolo[3,4-c]pyrrole-2(1H)-carboxamide] | 75 to 250% | 0.1 to 1 µM | 75 to 250%

The remaining lines, values ahead:

Row | activation at 1.54 µM | AC50 | Emax | Structure (SMILES)
8 | 75 to 250% | 0.1 to 1 µM | 250 to 500% | O=C(NC1CCOC1)N1CC2=C(C1)CN(S(=O)(=O)c1ccc3occc3c1)C2 (stereo not drawn) [Example 3-2, 5-(Benzofuran-5-ylsulfonyl)-N-(tetrahydrofuran-3-yl)-3,4,5,6-tetrahydropyrrolo[3,4-c]pyrrole-2(1H)-carboxamide]
9 | 75 to 250% | 1 to 40 µM | 75 to 250% | COC[C@@H](C)NC(=O)N1CC2=C(C1)CN(S(=O)(=O)c1ccc3occc3c1)C2 [Example 3-3, (R)-5-(benzofuran-5-ylsulfonyl)-N-(1-methoxypropan-2-yl)-3,4,5,6-tetrahydropyrrolo[3,4-c]pyrrole-2(1H)-carboxamide]
10 | 75 to 250% | 0.1 to 1 µM | 75 to 250% | O=C(NCc1cccnc1)N1CC2=C(C1)CN(S(=O)(=O)c1ccc3occc3c1)C2 [Example 3-4, 5-(Benzofuran-5-ylsulfonyl)-N-(pyridin-3-ylmethyl)-3,4,5,6-tetrahydropyrrolo[3,4-c]pyrrole-2(1H)-carboxamide]
11 | 75 to 250% | 1 to 40 µM | 75 to 250% | O=C(NCC1CCOC1)N1CC2=C(C1)CN(S(=O)(=O)c1ccc3occc3c1)C2 (stereo not drawn) [Example 3-5, 5-(Benzofuran-5-ylsulfonyl)-N-((tetrahydrofuran-3-yl)methyl)-3,4,5,6-tetrahydropyrrolo[3,4-c]pyrrole-2(1H)-carboxamide]
12 | 75 to 250% | 1 to 40 µM | 75 to 250% | NS(=O)(=O)c1ccc(S(=O)(=O)N2CC3=C(CN(C(=O)[C@H](O)c4ccccc4)C3)C2)cc1 [Example 13-1, (R)-4-((5-(2-hydroxy-2-phenylacetyl)-3,4,5,6-tetrahydropyrrolo[3,4-c]pyrrol-2(1H)-yl)sulfonyl)benzenesulfonamide]
13 | 75 to 250% | 1 to 40 µM | 75 to 250% | O=C([C@H](O)c1ccccc1)N1CC2=C(C1)CN(S(=O)(=O)c1ccccc1OC(F)(F)F)C2 [Example 18-46, (2R)-2-hydroxy-2-phenyl-1-{5-[2-(trifluoromethoxy)benzenesulfonyl]-1H,2H,3H,4H,5H,6H-pyrrolo[3,4-c]pyrrol-2-yl}ethan-1-one]
14 | 75 to 250% | 0.1 to 1 µM | 75 to 250% | O=C([C@H](O)c1ccccc1)N1CC2=C(C1)CN(S(=O)(=O)c1cc(F)ccc1Cl)C2 [Example 18-57, (2R)-1-[5-(2-chloro-5-fluorobenzenesulfonyl)-1H,2H,3H,4H,5H,6H-pyrrolo[3,4-c]pyrrol-2-yl]-2-hydroxy-2-phenylethan-1-one]
15 | 75 to 250% | 1 to 40 µM | 75 to 250% | CC[C@H](O)C(=O)N1CC2=C(C1)CN(S(=O)(=O)c1ccc3c(c1)N(C)CCO3)C2 [Example 18-75, (2S)-2-hydroxy-1-{5-[(4-methyl-3,4-dihydro-2H-1,4-benzoxazin-6-yl)sulfonyl]-1H,2H,3H,4H,5H,6H-pyrrolo[3,4-c]pyrrol-2-yl}butan-1-one]
16 | 75 to 250% | 1 to 40 µM | 75 to 250% | CN1CCOc2ccc(S(=O)(=O)N3CC4=C(CN(C(=O)[C@@H]5CCCO5)C4)C3)cc21 [Example 18-77, 4-Methyl-6-({5-[(2S)-oxolane-2-carbonyl]-1H,2H,3H,4H,5H,6H-pyrrolo[3,4-c]pyrrol-2-yl}sulfonyl)-3,4-dihydro-2H-1,4-benzoxazine]
17 | 75 to 250% | 1 to 40 µM | 75 to 250% | CN1CCOc2ccc(S(=O)(=O)N3CC4=C(CN(C(=O)C5CCCC5)C4)C3)cc21 [Example 18-78, 6-({5-Cyclopentanecarbonyl-1H,2H,3H,4H,5H,6H-pyrrolo[3,4-c]pyrrol-2-yl}sulfonyl)-4-methyl-3,4-dihydro-2H-1,4-benzoxazine]
18 | 250 to 50000% | 0.1 to 1 µM | 250 to 500% | O=C(c1csc(Nc2cccnc2)n1)N1CC2=C(C1)CN(S(=O)(=O)c1ccc3occc3c1)C2 [Example 18-79, N-{4-[5-(1-benzofuran-5-sulfonyl)-1H,2H,3H,4H,5H,6H-pyrrolo[3,4-c]pyrrole-2-carbonyl]-1,3-thiazol-2-yl}pyridin-3-amine]
19 | 250 to 50000% | 0.1 to 1 µM | 250 to 500% | O=C(c1ccc(OCC(F)(F)F)nc1)N1CC2=C(C1)CN(S(=O)(=O)c1ccc3occc3c1)C2 [Example 18-81, 5-[5-(1-Benzofuran-5-sulfonyl)-1H,2H,3H,4H,5H,6H-pyrrolo[3,4-c]pyrrole-2-carbonyl]-2-(2,2,2-trifluoroethoxy)pyridine]
20 | 75 to 250% | 1 to 40 µM | 75 to 250% | Cc1cnc(C(=O)N2CC3=C(C2)CN(S(=O)(=O)c2ccc4occc4c2)C3)cn1 [Example 18-82, 2-[5-(1-Benzofuran-5-sulfonyl)-1H,2H,3H,4H,5H,6H-pyrrolo[3,4-c]pyrrole-2-carbonyl]-5-methylpyrazine]
